{"source": "patent US9132140B2", "about": "“Boronic acid derivatives and therapeutic uses thereof” (Rempex Pharmaceuticals, Inc., priority 2013, dated 2015)", "key": {"KP1070 (KPC TEM SHV)": {"tested_on": "KP1070 (KPC TEM SHV)", "format": "cell-based, Klebsiella pneumoniae", "description": "(§1) Several strains simultaneously expressing both class A and class B carbapenemases, which were constructed using conjugation, were also included in the panel."}, "KPM1122 (NDM, VIM)": {"tested_on": "KPM1122 (NDM, VIM)", "format": "cell-based, Klebsiella pneumoniae", "description": "as §1"}, "[1]": {"tested_on": "KP1084 (KPC-3, SHV-11, TEM-1)", "format": "cell-based, Klebsiella pneumoniae", "description": "as §1"}, "KP1098 (IMP-26 TEM SHV)": {"tested_on": "KP1098 (IMP-26 TEM SHV)", "format": "cell-based, Klebsiella pneumoniae", "description": "as §1"}, "[2]": {"tested_on": "KP1087 (KPC-2, CTX-M-15, SHV-11, TEM-1)", "format": "cell-based, Klebsiella pneumoniae", "description": "(§2) The results are present in Table 6.\n(§3) The results are present in Table 7."}, "[3]": {"tested_on": "KP1081 (NDM-1, TEM-1, SHV-11, CMY-6, CTX-M-15)", "format": "cell-based, Klebsiella pneumoniae", "description": "as §2, §3"}, "[4]": {"tested_on": "EC1064 (NDM-1, CMY-6, CTX-M-15)", "format": "cell-based, Escherichia coli", "description": "as §1"}, "EC1061 (NDM-1, CMY-6)": {"tested_on": "EC1061 (NDM-1, CMY-6)", "format": "cell-based, Escherichia coli", "description": "as §1"}, "EC1068 (VIM-1)": {"tested_on": "EC1068 (VIM-1)", "format": "cell-based, Escherichia coli", "description": "as §1"}, "EC1065 (IMP-1 CMY-2)": {"tested_on": "EC1065 (IMP-1 CMY-2)", "format": "cell-based, Escherichia coli", "description": "as §1"}, "ECM6703 (pUCP24-NDM-1)": {"tested_on": "ECM6703 (pUCP24-NDM-1)", "assay": "microbe, parasite or virus in culture", "format": "cell-based, E. coli", "details": "Escherichia coli, read-out: Imipenem MIC Alone"}, "ECL1045 (VIM-1)": {"tested_on": "ECL1045 (VIM-1)", "format": "cell-based, Enterobacter cloacae", "description": "as §1"}, "ECLM1014 (NDM, KPC)": {"tested_on": "ECLM1014 (NDM, KPC)", "format": "cell-based, Enterobacter cloacae", "description": "as §1"}, "ECL1036 (KPC)": {"tested_on": "ECL1036 (KPC)", "format": "cell-based, Enterobacter cloacae", "description": "as §1"}, "ECLM1015 (NDM, KPC)": {"tested_on": "ECLM1015 (NDM, KPC)", "format": "cell-based, Enterobacter cloacae", "description": "as §1"}, "ECLM1013 (NDM, KPC)": {"tested_on": "ECLM1013 (NDM, KPC)", "format": "cell-based, Enterobacter cloacae", "description": "as §1"}, "ECLM1016 (NDM, KPC)": {"tested_on": "ECLM1016 (NDM, KPC)", "format": "cell-based, Enterobacter cloacae", "description": "as §1"}, "ECL1055 (KPC)": {"tested_on": "ECL1055 (KPC)", "format": "cell-based, Enterobacter cloacae", "description": "as §1"}, "ECL1026 (KPC)": {"tested_on": "ECL1026 (KPC)", "format": "cell-based, Enterobacter cloacae", "description": "as §1"}, "[5]": {"tested_on": "ECL1057 (NDM-1, TEM-1, CTX-M-15)", "format": "cell-based, Enterobacter cloacae", "description": "as §1"}, "ECLM1019 (VIM, KPC)": {"tested_on": "ECLM1019 (VIM, KPC)", "format": "cell-based, Enterobacter cloacae", "description": "as §1"}, "ECL1082 (VIM-1)": {"tested_on": "ECL1082 (VIM-1)", "format": "cell-based, Enterobacter cloacae", "description": "as §1"}, "ECLM1017 (VIM, KPC)": {"tested_on": "ECLM1017 (VIM, KPC)", "format": "cell-based, Enterobacter cloacae", "description": "as §1"}, "ECLM1018 (VIM, KPC)": {"tested_on": "ECLM1018 (VIM, KPC)", "format": "cell-based, Enterobacter cloacae", "description": "as §1"}}}
{"smiles": "C[C@@H](O)[C@H]1C(=O)N2C(C(=O)O)=C(SCCN=CN)C[C@H]12", "note": "[Imipenem, reference compound]", "values": [{"measurement": "Carbapenem MIC alone", "setting": "KP1070 (KPC TEM SHV)", "result": "Z (key: X: MIC of less than 1 μg/mL; Y: MIC of 1 μg/mL to 10 μg/mL; Z: MIC of greater than 10 μg/mL)"}, {"measurement": "Carbapenem MIC alone", "setting": "KPM1122 (NDM, VIM)", "result": "Z (key: X: MIC of less than 1 μg/mL; Y: MIC of 1 μg/mL to 10 μg/mL; Z: MIC of greater than 10 μg/mL)"}, {"measurement": "Carbapenem MIC alone", "setting": "[1]", "result": "Z (key: X: MIC of less than 1 μg/mL; Y: MIC of 1 μg/mL to 10 μg/mL; Z: MIC of greater than 10 μg/mL)"}, {"measurement": "Carbapenem MIC alone", "setting": "KP1098 (IMP-26 TEM SHV)", "result": "Y (key: X: MIC of less than 1 μg/mL; Y: MIC of 1 μg/mL to 10 μg/mL; Z: MIC of greater than 10 μg/mL)"}, {"measurement": "Carbapenem MIC alone", "setting": "[2]", "result": "Y (key: X: MIC of less than 1 μg/mL; Y: MIC of 1 μg/mL to 10 μg/mL; Z: MIC of greater than 10 μg/mL)"}, {"measurement": "Carbapenem MIC alone", "setting": "[3]", "result": "Z (key: X: MIC of less than 1 μg/mL; Y: MIC of 1 μg/mL to 10 μg/mL; Z: MIC of greater than 10 μg/mL)"}, {"measurement": "Carbapenem MIC alone", "setting": "[4]", "result": "Z (key: X: MIC of less than 1 μg/mL; Y: MIC of 1 μg/mL to 10 μg/mL; Z: MIC of greater than 10 μg/mL)"}, {"measurement": "Carbapenem MIC alone", "setting": "EC1061 (NDM-1, CMY-6)", "result": "Y (key: X: MIC of less than 1 μg/mL; Y: MIC of 1 μg/mL to 10 μg/mL; Z: MIC of greater than 10 μg/mL)"}, {"measurement": "Carbapenem MIC alone", "setting": "EC1068 (VIM-1)", "result": "Y (key: X: MIC of less than 1 μg/mL; Y: MIC of 1 μg/mL to 10 μg/mL; Z: MIC of greater than 10 μg/mL)"}, {"measurement": "Carbapenem MIC alone", "setting": "EC1065 (IMP-1 CMY-2)", "result": "Y (key: X: MIC of less than 1 μg/mL; Y: MIC of 1 μg/mL to 10 μg/mL; Z: MIC of greater than 10 μg/mL)"}, {"measurement": "MIC", "setting": "ECM6703 (pUCP24-NDM-1)", "result": "> 1", "unit": "µg/mL"}, {"measurement": "Carbapenem MIC alone", "setting": "ECL1045 (VIM-1)", "result": "Y (key: X: MIC of less than 1 μg/mL; Y: MIC of 1 μg/mL to 10 μg/mL; Z: MIC of greater than 10 μg/mL)"}, {"measurement": "Carbapenem MIC alone", "setting": "ECLM1014 (NDM, KPC)", "result": "Y (key: X: MIC of less than 1 μg/mL; Y: MIC of 1 μg/mL to 10 μg/mL; Z: MIC of greater than 10 μg/mL)"}, {"measurement": "Carbapenem MIC alone", "setting": "ECL1036 (KPC)", "result": "Y (key: X: MIC of less than 1 μg/mL; Y: MIC of 1 μg/mL to 10 μg/mL; Z: MIC of greater than 10 μg/mL)"}, {"measurement": "Carbapenem MIC alone", "setting": "ECLM1015 (NDM, KPC)", "result": "Z (key: X: MIC of less than 1 μg/mL; Y: MIC of 1 μg/mL to 10 μg/mL; Z: MIC of greater than 10 μg/mL)"}, {"measurement": "Carbapenem MIC alone", "setting": "ECLM1013 (NDM, KPC)", "result": "Z (key: X: MIC of less than 1 μg/mL; Y: MIC of 1 μg/mL to 10 μg/mL; Z: MIC of greater than 10 μg/mL)"}, {"measurement": "Carbapenem MIC alone", "setting": "ECLM1016 (NDM, KPC)", "result": "Z (key: X: MIC of less than 1 μg/mL; Y: MIC of 1 μg/mL to 10 μg/mL; Z: MIC of greater than 10 μg/mL)"}, {"measurement": "Carbapenem MIC alone", "setting": "ECL1055 (KPC)", "result": "Y (key: X: MIC of less than 1 μg/mL; Y: MIC of 1 μg/mL to 10 μg/mL; Z: MIC of greater than 10 μg/mL)"}, {"measurement": "Carbapenem MIC alone", "setting": "ECL1026 (KPC)", "result": "Y (key: X: MIC of less than 1 μg/mL; Y: MIC of 1 μg/mL to 10 μg/mL; Z: MIC of greater than 10 μg/mL)"}, {"measurement": "Carbapenem MIC alone", "setting": "[5]", "result": "Z (key: X: MIC of less than 1 μg/mL; Y: MIC of 1 μg/mL to 10 μg/mL; Z: MIC of greater than 10 μg/mL)"}, {"measurement": "Carbapenem MIC alone", "setting": "ECLM1019 (VIM, KPC)", "result": "Z (key: X: MIC of less than 1 μg/mL; Y: MIC of 1 μg/mL to 10 μg/mL; Z: MIC of greater than 10 μg/mL)"}, {"measurement": "Carbapenem MIC alone", "setting": "ECL1082 (VIM-1)", "result": "Z (key: X: MIC of less than 1 μg/mL; Y: MIC of 1 μg/mL to 10 μg/mL; Z: MIC of greater than 10 μg/mL)"}, {"measurement": "Carbapenem MIC alone", "setting": "ECLM1017 (VIM, KPC)", "result": "Z (key: X: MIC of less than 1 μg/mL; Y: MIC of 1 μg/mL to 10 μg/mL; Z: MIC of greater than 10 μg/mL)"}, {"measurement": "Carbapenem MIC alone", "setting": "ECLM1018 (VIM, KPC)", "result": "Z (key: X: MIC of less than 1 μg/mL; Y: MIC of 1 μg/mL to 10 μg/mL; Z: MIC of greater than 10 μg/mL)"}]}
